Here are results for 22 compounds from ChEMBL document CHEMBL1127714, “Vasorelaxant activity of 2-fluoromethylbenzopyran K+ channel openers” (Bioorg Med Chem Lett, 1994).

The species entered for experiment [1] is Rattus norvegicus. Description: Negative logarithm of the molar concentration required to relax rat aorta precontracted with 30 mM KCL by 50% of intrinsic activity. The experiment is classed as functional.
The species entered for experiment [2] is Rattus norvegicus. Description: Intrinsic activity determined in rat aorta. Format: functional.

Regarding `O=c1ccccn1C1=CC(CF)(CF)Oc2ccc(C(F)(F)C(F)(F)F)cc21`, the EC50 (in general, the concentration giving half of the maximal effect) in the experiment listed under Rattus norvegicus [1] was 2.95 nM. In the experiment filed under Rattus norvegicus [2], the IA is 69.2%.
`N#Cc1ccc2c(c1)[C@@H](n1ccccc1=O)[C@H](O)C(CF)(CF)O2` gave an EC50 in the experiment listed under Rattus norvegicus [1] of 148 nM. For the same compound, the IA in the experiment filed under Rattus norvegicus [2] was determined as 78.7%.
In the experiment filed under Rattus norvegicus [1], `O=C1CCCN1C1=CC(CF)(CF)Oc2ccc([N+](=O)[O-])cc21` showed an EC50 of 7.76 nM. Also, the IA in the experiment filed under Rattus norvegicus [2] came to 74.3%.
On the same counts, the results for `N#Cc1ccc2c(c1)C(n1ccccc1=O)=CC(CF)(CF)O2` are 24.5 nM and 75.7%.
The corresponding values for `O=c1ccccn1C1=CC(CF)(CF)Oc2ccc([N+](=O)[O-])cc21` are 2.45 nM and 64.9%.
On the same counts, the results for `O=C1CCCCN1C1=CC(CF)(CF)Oc2ccc(C(F)(F)C(F)(F)F)cc21` are 5.62 nM and 72%.
Consider `O=C1CCCN1C1=CC(CF)(CF)Oc2ccc(C(F)(F)C(F)(F)F)cc21`, for which the EC50 in the experiment listed under Rattus norvegicus [1] is 1.51 nM. In the experiment listed under Rattus norvegicus [2], this compound gave an IA of 68.6%.
The corresponding values for `N#Cc1ccc2c(c1)[C@@H](N1CCCC1=O)[C@H](O)C(CF)(CF)O2` are 85.1 nM and 78%.
The corresponding values for `O=C1CCCCN1C1=CC(CF)(CF)Oc2ccc([N+](=O)[O-])cc21` are 17.4 nM and 69.7%.
Compound `N#Cc1ccc2c(c1)[C@@H](N1CCCCC1=O)[C@H](O)C(CF)(CF)O2` showed an EC50 in the experiment listed under Rattus norvegicus [1] of 8.91 nM. For the same compound, in the experiment filed under Rattus norvegicus [2], the IA was 74.9%.
As to `O=c1ccccn1[C@@H]1c2cc(C(F)(F)C(F)(F)F)ccc2OC(CF)(CF)[C@H]1O`, in the experiment filed under Rattus norvegicus [1], the EC50 was 12 nM. The compound further gave an IA in the experiment filed under Rattus norvegicus [2] of 82.8%.
On the same counts, the results for `O=C1CCCN1[C@@H]1c2cc(C(F)(F)C(F)(F)F)ccc2OC(CF)(CF)[C@H]1O` are 6.31 nM and 77.6%.
As for `N#Cc1ccc2c(c1)C(N1CCCCC1=O)=CC(CF)(CF)O2`, the EC50 in the experiment listed under Rattus norvegicus [1] is 162 nM. Moreover, in the experiment listed under Rattus norvegicus [2], the IA is on record as 68.7%.
Compound `[O-][n+]1ccccc1C1=CC(CF)(CF)Oc2ccc(C(F)(F)C(F)(F)F)cc21` showed a concentration giving a half-maximal response (EC50) in the experiment listed under Rattus norvegicus [1] of 1.7 nM. For the same compound, the IA in the experiment filed under Rattus norvegicus [2] amounted to 68.2%.
`N#Cc1ccc2c(c1)C(N1CCCC1=O)=CC(CF)(CF)O2`: the EC50 in the experiment filed under Rattus norvegicus [1] is 102 nM. Besides, the IA in the experiment filed under Rattus norvegicus [2] came to 74.4%.
`O=C1CCCCN1[C@@H]1c2cc([N+](=O)[O-])ccc2OC(CF)(CF)[C@H]1O` had a 50% effective concentration (EC50) in the experiment listed under Rattus norvegicus [1] of 2.75 nM. This compound also registered an IA in the experiment filed under Rattus norvegicus [2] of 63.3%.
`O=C1CCCN1[C@@H]1c2cc([N+](=O)[O-])ccc2OC(CF)(CF)[C@H]1O` showed an EC50 in the experiment listed under Rattus norvegicus [1] of 24 nM. Also, in the experiment filed under Rattus norvegicus [2], the IA is given as 72.7%.
The corresponding values for `O=c1ccccn1[C@@H]1c2cc([N+](=O)[O-])ccc2OC(CF)(CF)[C@H]1O` are 28.8 nM and 74.5%.
As to `O=C1CCCCN1[C@@H]1c2cc(C(F)(F)C(F)(F)F)ccc2OC(CF)(CF)[C@H]1O`, the EC50 in the experiment listed under Rattus norvegicus [1] was 3.89 nM. Besides, the IA in the experiment listed under Rattus norvegicus [2] was determined as 65.6%.
The corresponding values for `CC1(C)C=C(n2ccccc2=O)c2cc(C#N)ccc2O1` [BIMAKALIM] are 30.2 nM and 70.2%.
`CC1(C)Oc2ccc(C#N)cc2[C@@H](N2CCCC2=O)[C@@H]1O` [CROMAKALIM] showed an IA in the experiment filed under Rattus norvegicus [2] of 74.7%.
As for `CC(N/C(=N\C#N)Nc1ccncc1)C(C)(C)C` (configuration not stated) [PINACIDIL ANHYDROUS], in the experiment filed under Rattus norvegicus [2], the IA is reported as 91.9%.
